Reference: paper PMC5161367, “Discovery of Novel Small Molecule Inhibitors of VEGF Expression in Tumor Cells Using a Cell-Based High Throughput Screening Platform” (PLoS ONE, 2016)

Key:
VEGF mRNA UTRs reporter = experiment: UTR-selectivity luciferase reporter cell lines (VEGF vs HIF-1α, DPPIV UTRs); format: cell-based, human; details: HEK 293 luciferase reporter stable cell lines
Description: (§1) Selective inhibition by PTC-510 of reporter gene expression mediated by VEGF mRNA UTRs. All luciferase reporter stable cell lines used in this study were generated from HEK 293 cells transfected with the luciferase reporter gene flanked with the UTRs derived from each target gene. HIF-1α: hypoxia Inducible Factor 1 alpha; DPPIV: dipeptidyl peptidase IV. (DOC) Click here for additional data file.
as §1, with “[picture] Selective” for “Selective”, “IV.” for “IV. (DOC) Click here for additional data file.”

[1] = Plasma exposure after a single oral dose in mice; format: in vivo, mouse; details: male C57BL/6 mice, single oral dose 10 mg/kg, 5% DMSO and 95% PEG300
Procedure: Supplementary file pone.0168366.s006.doc: S6 Fig Exposure of PTC-510 after oral administration. Male C57BL/6 mice were dosed with test compound in 5% DMSO and 95% PEG300. At specified time points (3 mice per time point), mice were euthanized and blood collected by terminal cardiac puncture. Plasma test compounds were then measured by LC/MS-MS. (DOC) Click here for additional data file.
Male C57BL/6 mice were administered test compounds in 5% DMSO and 95% PEG300 at a dose of 10 mg/kg. At specified time points (3 mice per time point), mice were euthanized and blood collected by terminal cardiac puncture. Plasma concentrations of test compounds were then quantified by LC/MS-MS.

[2] = Microsome metabolism - primate; format: in vitro ADME
Procedure: (§2) Pharmacological characterization of PTC-510. Pharmacological assays were performed to characterize PTC-510, including metabolic stability in human, primate mouse and rat liver microsomes; absorption in Caco-2 cells; in vitro effect on hERG ion channel; pharmacokinetics; and acute toxicity in the rat.

Cyp3A4 = Cyp3A4 (Homo sapiens, UniProt P08684); experiment: p450 inhibition Cyp3A4; format: in vitro ADME
Cyp2C19 = Cyp2C19 (Homo sapiens, UniProt P33261); experiment: p450 inhibition Cyp2C19; format: in vitro ADME
in vitro = in vitro ADME; details: human, Caco-2
Procedure: as §2

hERG ion channel = hERG ion channel (Homo sapiens, UniProt Q12809); format: biochemical
Procedure: as §2

G-CSF = G-CSF ELISA in HT1080 cells under normoxia; format: cell-based; details: Homo sapiens, HT-1080; HT1080 cells under normoxia (21% oxygen), 48 hours
Procedure: (§3) Cells were treated with vehicle control (0.5% DMSO) or compounds at the indicated concentration for 48 hours, and specific proteins in conditioned medium were quantified using commercially available ELISA kits (R&D Systems) according to the manufacturer’s recommendations. VEGF was quantified in HeLa cells under hypoxia (1% oxygen); Tumor necrosis factor alpha (TNFα) was quantified in CEM cells stimulated with 1 μg/mL interleukin-1 beta (Sigma); erythropoietin (EPO) was quantified in HepB3 cells under hypoxic conditions (1% oxygen); and granulocyte colony-stimulating factor (G-CSF), basic fibroblast growth factor (FGF-2) and insulin-like growth factor 1 (IGF-1) were quantified without induction in HT1080 cells, HeLa cells and HepG2 cells, respectively.
(§4) Several target proteins were chosen as selectivity counter-screens, including TNF-alpha, FGF-2, G-CSF, IGF-1, and EPO. Similar to that of VEGF, the expression levels of these proteins are post-transcriptionally regulated, either through a 5’-UTR IRES, 3’-UTR AU-rich elements (AREs), or both.

FGF-2 = FGF-2 ELISA in HeLa cells under normoxia; format: cell-based; details: Homo sapiens; HeLa cells under normoxia (21% oxygen), 48 hours; read-out: ELISA EC50, FGF2
Procedure: as §3, §4

IGF-1 = IGF-1 ELISA in HepG-2 cells under normoxia; format: cell-based; details: Homo sapiens, HepG2; HepG-2 cells under normoxia (21% oxygen), 48 hours
Procedure: as §3, §4

EPO = EPO ELISA in HepB3 cells under hypoxia; format: cell-based; details: Homo sapiens; HepB3 cells under hypoxia (1% oxygen), 48 hours
Procedure: as §3, §4

[3] = Cytotoxicity, CellTiter-Glo, foreskin fibroblasts; format: cell-based; details: human, primary foreskin fibroblasts, read-out: Cytotoxicity CC50, Foreskin Fibroblast
Procedure: The cytotoxicity of compounds was determined in peripheral blood mononuclear cells (PBMCs) and primary human foreskin fibroblasts, both purchased frozen from AllCells, Inc, CA. Cells were incubated with test compound at various concentrations in triplicate for a period of 3 days in 96-well plates. The cytotoxicity or inhibition of cell proliferation was determined using a standard CellTiter-Glo® Luminescent Cell Viability Assay (Promega, Madison, WI) that measures total cellular adenosine triphosphate (ATP) concentration as a function of cell viability. In addition, cytotoxicity assays were also performed in HeLa cells in parallel with VEGF ELISA to ensure that the inhibition of VEGF production in HeLa cells was not due to cytotoxicity.

Sequence of Cyp3A4 (P08684 whole entry): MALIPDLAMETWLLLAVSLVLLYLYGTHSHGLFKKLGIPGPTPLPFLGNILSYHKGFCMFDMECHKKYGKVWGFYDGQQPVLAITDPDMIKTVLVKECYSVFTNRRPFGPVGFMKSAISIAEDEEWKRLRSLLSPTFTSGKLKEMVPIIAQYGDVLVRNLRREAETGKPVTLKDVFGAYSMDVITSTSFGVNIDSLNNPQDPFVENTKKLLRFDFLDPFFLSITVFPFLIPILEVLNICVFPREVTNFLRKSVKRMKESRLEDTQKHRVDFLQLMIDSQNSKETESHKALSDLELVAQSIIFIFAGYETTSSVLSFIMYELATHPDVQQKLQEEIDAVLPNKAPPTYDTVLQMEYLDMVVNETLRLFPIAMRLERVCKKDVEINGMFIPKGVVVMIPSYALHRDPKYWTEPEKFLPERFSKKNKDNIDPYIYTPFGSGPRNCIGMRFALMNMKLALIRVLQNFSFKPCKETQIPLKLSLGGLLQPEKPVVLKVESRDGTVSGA
Sequence of Cyp2C19 (P33261 whole entry): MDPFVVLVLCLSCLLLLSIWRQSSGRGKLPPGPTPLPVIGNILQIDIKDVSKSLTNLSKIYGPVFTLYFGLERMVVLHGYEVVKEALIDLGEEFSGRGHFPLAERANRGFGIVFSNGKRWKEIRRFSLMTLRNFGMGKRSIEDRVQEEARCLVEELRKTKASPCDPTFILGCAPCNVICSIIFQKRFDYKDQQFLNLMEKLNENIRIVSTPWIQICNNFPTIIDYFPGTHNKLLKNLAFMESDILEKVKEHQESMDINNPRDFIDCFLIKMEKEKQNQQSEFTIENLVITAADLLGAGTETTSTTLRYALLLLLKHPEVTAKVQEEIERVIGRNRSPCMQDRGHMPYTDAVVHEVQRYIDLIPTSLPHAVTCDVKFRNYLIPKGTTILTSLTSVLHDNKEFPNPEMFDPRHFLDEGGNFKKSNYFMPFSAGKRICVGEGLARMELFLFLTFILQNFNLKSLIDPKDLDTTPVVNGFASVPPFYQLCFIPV
Sequence of hERG ion channel (Q12809 whole entry): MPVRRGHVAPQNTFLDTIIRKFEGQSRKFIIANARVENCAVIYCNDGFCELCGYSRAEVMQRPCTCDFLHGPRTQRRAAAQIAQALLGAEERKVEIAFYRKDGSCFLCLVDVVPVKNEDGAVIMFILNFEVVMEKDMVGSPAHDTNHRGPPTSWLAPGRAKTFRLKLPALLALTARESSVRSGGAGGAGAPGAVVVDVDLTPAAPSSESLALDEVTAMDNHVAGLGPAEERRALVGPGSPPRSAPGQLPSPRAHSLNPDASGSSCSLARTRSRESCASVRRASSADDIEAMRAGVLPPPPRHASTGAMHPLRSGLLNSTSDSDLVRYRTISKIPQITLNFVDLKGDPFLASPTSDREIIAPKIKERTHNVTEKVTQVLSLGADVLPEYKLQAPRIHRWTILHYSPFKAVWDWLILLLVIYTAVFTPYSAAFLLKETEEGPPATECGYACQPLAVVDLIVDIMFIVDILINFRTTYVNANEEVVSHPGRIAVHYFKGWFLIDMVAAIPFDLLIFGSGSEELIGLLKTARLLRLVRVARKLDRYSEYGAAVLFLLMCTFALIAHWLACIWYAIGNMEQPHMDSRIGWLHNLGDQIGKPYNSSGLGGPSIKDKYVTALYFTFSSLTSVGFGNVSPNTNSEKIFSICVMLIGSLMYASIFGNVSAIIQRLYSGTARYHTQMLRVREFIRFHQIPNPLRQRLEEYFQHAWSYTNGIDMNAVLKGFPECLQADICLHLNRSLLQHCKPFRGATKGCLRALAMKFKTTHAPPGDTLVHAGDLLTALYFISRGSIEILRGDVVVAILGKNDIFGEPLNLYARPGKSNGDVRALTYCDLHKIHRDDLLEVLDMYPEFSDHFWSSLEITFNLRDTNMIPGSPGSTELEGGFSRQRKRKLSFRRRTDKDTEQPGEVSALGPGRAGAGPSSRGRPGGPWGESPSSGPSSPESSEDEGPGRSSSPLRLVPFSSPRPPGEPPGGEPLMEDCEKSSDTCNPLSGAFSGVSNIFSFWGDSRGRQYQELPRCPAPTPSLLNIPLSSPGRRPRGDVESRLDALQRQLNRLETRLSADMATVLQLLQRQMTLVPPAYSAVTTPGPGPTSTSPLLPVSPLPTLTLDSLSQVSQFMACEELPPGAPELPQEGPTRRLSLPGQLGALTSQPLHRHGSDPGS

With `COc1ccc(C2c3[nH]c4ccc(Br)cc4c3CC3C(=O)N(C4CCCCC4)C(=S)N32)cc1.O=C(O)C(F)(F)F` (stereo not drawn) [PTC-510, 9-bromo-2-cyclohexyl-5-(4-methoxyphenyl)-3-thioxo-2,3,5,6,11,11a-hexahydro-1H-imidazo[1’,5’:1,6]pyrido[3,4-b]indol-1-one trifluoroacetate] as the compound, how does the “VEGF UTR selectivity compared to UTRs of HIF-1α and DPPIV” value (VEGF mRNA UTRs reporter) read?
The value was “VEGF UTR selective”.

And the “bio-availability and exposure compared to PTC-858” value [1]?
Its value is “much better bio-availability and exposure”.

What about the “Microsome metabolism - primate, % loss @ 1 h” value [2] of the same compound?
The value was 0%.

What about the IC50 (Cyp3A4) of the same compound?
Its IC50 is 3.7 µM.

What about the IC50 (Cyp2C19) of the same compound?
Its IC50 is > 5 µM.

What about the Papp (in vitro) of the same compound?
Its Papp is 1 ×10⁻⁶ cm/s.

What about the “HERG % inhibition @ 10 µM” value (hERG ion channel) of the same compound?
The value was 2%.

With `Brc1ccc2[nH]c3c(c2c1)CCCC3n1cccc1` (stereo not drawn) [PTC-858, 6-bromo-1-(1H-pyrrol-1-yl)-2,3,4,9-tetrahydro-1H-carbazole] as the compound, how does the EC50 (G-CSF) read?
Its EC50 is > 30 µM.

What about the EC50 (FGF-2) of the same compound?
The EC50 was 0.58 µM.

And the EC50 (IGF-1)?
The EC50 was > 30 µM.

What about the EC50 (EPO) of the same compound?
Its EC50 is 8.1 µM.

What about the CC50 at 72 hours [3] of the same compound?
Its CC50 at 72 hours is > 30 µM.
